Reference: patent publication US8673366B2, “Chemotherapeutic and prophylactic pharmaceutical compositions” (priority 2004, dated 2014)
Where two headings read alike, the source gives them in different places.

Experiments:
[1] = system: Escherichia coli (E. coli) strain procured from a patient; assay: MIC macrodilution (NCCLS) serial dilution; type: cell-based; parameters: key to growth in MIC tube: “+” denotes visually detectable growth in MIC tube.; “NG” denotes “no growth” in MIC tube; key to MIC: “NE” denotes not effective; details: for MIC: antibiotics
Experimental: (§1) Cell suspension concentration was calculated by measuring the optical density (A610) between 0.6 and 0.9.
(§2) To study efficacy, the challenge was done by determining minimum inhibitory concentration or MIC by employing serial dilutions. The minimum inhibitory concentration or MIC is defined as the minimum concentration of antibiotic that will inhibit the growth of the isolated microorganism. In its normal mode of operation, a bacterial inoculum is inoculated into tubes containing culture media and varying concentrations of the antibiotic to be tested. The tubes are incubated to allow bacterial growth. The MIC is read as the lowest concentration of biocide that inhibited bacterial growth. The interpretation of this MIC depends on the organism/biocide pair being tested, and is made following standard guidelines. MIC testing of the present compositions was conducted via a macrodilution procedure using NCCLS (National Committee for Clinical Laboratory Standards) methods for antibiotic susceptibility testing. The biological experiments were conducted by serial dilution with Muller Hinton media of ten tubes where the bacterial concentration was 10 million cells/ml in each. In addition to the “as is” samples (i.e. 100%), ten 1:1 serial dilutions of each sample were tested to determine the MIC for each sample-inoculum combination. The equivalent percentages of the dilutions are: 100, 50, 25, 12.5, 6.25, 3.125, 1.562, 0.781, 0.391, and 0.195%. These tubes were then incubated at 37±2° C. for approximately 24 hours without agitation. The tubes were then observed for presence and level of visible growth.

[2] = system: Staphylococcus aureus (S. aureus) ATCC 43300; assay: MIC macrodilution (NCCLS) serial dilution; type: cell-based; parameters: key to growth in MIC tube: “+” denotes visually detectable growth in MIC tube.; “NG” denotes “no growth” in MIC tube; details: for MIC: antibiotics
Experimental: as §1, §2

MCF-7 = details: for % Inhibition: 72 hrs
Experimental: (§3) Cells are plated in a 96 well flat bottom tissue culture plates at 10,000 cells/well. Dilutions and controls are added to wells as follows:
(§4) Vero Cells were grown and tested in complete Dulbeco's Modified Eagles Medium (DMEM) supplemented with 15% Fetal Bovine Serum (FBS), Gentamicine 40 μg/ml, Hepes buffer at pH=7.2, L-Glutamine 2 mM and Sodium pyruvate. MCF-7 were grown and tested in complete RPMI-1640 medium supplemented with 10% FBS Gentamicine 40 μg/ml, Hepes buffer at pH=7.2, L-Glutamine 2 mM and Sodium pyruvate. Plates were incubated in CO2 in a humidified incubator at 37° C. for 72 hrs, and then each well was harvested and counted by Trypan Blue dye exclusion method. Numbers of viable cells were counted on a hemacytometer and adjusted for concentration of cells/ml. For comparative purposes, experiments with Cisplatin ([…], MW=300), a well-known chemotherapeutic drug, at 8 and 4 μM were also conducted.
(§5) The methodology was the same as the one employed for Example 1 above.

T-47D = details: Example 2, FIG. 3, down to dilution 1:256 (18 and 3.64 μM silver and iron)
Experimental: as §3, §4, §5

[3] = system: BHL-89 (Human B-type EBNA negative lymphoma); details: Example 2, FIG. 3, down to dilution 1:256 (18 and 3.64 μM silver and iron)
Experimental: as §3, §4, §5

Jurkat = details: Example 2, FIG. 3, down to dilution 1:256 (18 and 3.64 μM silver and iron)
Experimental: as §3, §4, §5

[4] = system: Vero (Simian Kidney Immortalized Cell Line); assay: Cytotoxic effect, Trypan Blue viable cell count after 72 hrs; type: cell-based
Experimental: as §3, §4

[5] = 100% of initial, approx. 24 hours, 37°C
[6] = S. aureus (ATCC 43300), 100% of initial, approx. 24 hours, 37°C

Row | Compound | growth in MIC tube ([1]; 0.195% of initial) | growth in MIC tube ([1]; 0.391% of initial) | growth in MIC tube ([1]; 0.781% of initial) | growth in MIC tube ([1]; 1.562% of initial) | growth in MIC tube ([1]; 3.125% of initial) | growth in MIC tube ([1]; 6.25% of initial) | growth in MIC tube ([1]; 12.5% of initial) | growth in MIC tube ([1]; 25% of initial) | growth in MIC tube ([1]; 50% of initial) | growth in MIC tube [1, 5] | growth in MIC tube [2, 6] | growth in MIC tube ([2]; S. aureus, 0.195% of initial) | growth in MIC tube ([2]; S. aureus, 0.391% of initial) | growth in MIC tube ([2]; S. aureus, 0.781% of initial) | growth in MIC tube ([2]; S. aureus, 1.562% of initial) | growth in MIC tube ([2]; S. aureus, 3.125% of initial) | growth in MIC tube ([2]; S. aureus, 6.25% of initial) | growth in MIC tube ([2]; S. aureus, 12.5% of initial) | growth in MIC tube ([2]; S. aureus, 25% of initial) | growth in MIC tube ([2]; S. aureus, 50% of initial) | other results
1 | OO [50 mM H2O2, hydrogen peroxide] | + | + | + | + | + | + | + | NG | NG | NG | + | + | + | + | + | + | + | + | + | + | 
2 | O=P1(N(CCCl)CCCl)NCCCO1 (stereo not shown) [cyclophosphamide] |  |  |  |  |  |  |  |  |  |  |  |  |  |  |  |  |  |  |  |  | cytotoxic effect (in words) (MCF-7; Example 2, FIG. 3, down to dilution 1:256 (18 and 3.64 μM silver and iron)): minimum effects; cytotoxic effect (in words) (T-47D): does not have any effects; cytotoxic effect (in words) [3]: does not have any effects; cytotoxic effect (in words) (Jurkat): minimum effects
3 | Gentamicin | + | + | + | + | + | + | + | + | + | + | NG | NG | NG | NG | NG | NG | NG | NG | NG | NG | MIC [1]: NE; MIC ([2]; S. aureus): 0.391 ppm
4 | N.N.[Cl][Pt][Cl] [Cisplatin] |  |  |  |  |  |  |  |  |  |  |  |  |  |  |  |  |  |  |  |  | % Inhibition ([4]; 4 μM): no effect; % Inhibition ([4]; 4 μM, listed as CIS PLA): −7%; % Inhibition ([4]; 8 μM): 61%; % Inhibition (MCF-7; 4 μM): 72%; % Inhibition (MCF-7; 8 μM): 90%
5 | Cc1onc(-c2ccccc2)c1C(=O)N[C@@H]1C(=O)N2[C@@H]1SC(C)(C)[C@@H]2C(=O)O [OXA, Oxacillin] | + | + | + | + | + | + | + | + | + | + | NG | + | + | NG | NG | NG | NG | NG | NG | NG | MIC [1]: NE; MIC ([2]; Staphylococcus aureus, ATCC43300, S. aureus, read-out: MIC): 1.56 µg/mL
